Our source for the IC50 values is US20240245673A1, “Papain-like protease (PLpro) inhibitors” (Pfizer Inc., priority 2022, published 2024).

The first test has as its target SARS-CoV-2 Papain like protease (PLpro) (Severe acute respiratory syndrome coronavirus 2 (2019-nCoV) (SARS-CoV-2), UniProt P0DTD1). As to the kind of experiment: Papain Like Protease (PLpro) biochemical assay with profluorogenic substrate Z-RLRGG-AMC. The note with it: IC50 (μM), SARS-CoV-2 PLpro 6.25 nM, 25 μM Z-RLRGG-AMC substrate, 60 minute reaction.
For orientation: IC50 means the concentration at which inhibition is half-maximal. Turning to `Cc1ccc(CN)cc1C(=O)NC(C)c1cc(-n2ccnc2)nc2ccccc12` (stereo not shown) [Example 36, N-(1-(2-(1H-imidazol-1-yl)quinolin-4-yl)ethyl)-5-(aminomethyl)-2-methylbenzamide], 0.21 µM corresponded to half-maximal inhibition (IC50).

`Cc1ccc(N2CCN(C)CC2)cc1C(=O)NC1(c2cc(-c3cnn(C)c3)cc3ccccc23)CC1` [Example 231, 2-methyl-N-(1-(3-(1-methyl-1H-pyrazol-4-yl)naphthalen-1-yl)cyclopropyl)-5-(4-methylpiperazin-1-yl)benzamide] returned a half-maximal inhibitory concentration (IC50) of 0.003 µM.

Still in this test, the particulars now being: SARS-CoV-2 PLpro 6.25 nM, 25 μM Z-RLRGG-AMC substrate, 60 minute reaction; read-out: IC50.
With `Cc1ccc(NC(=O)[C@H]2CCCCN2)cc1C(=O)N[C@H](C)c1cc(N)nc2ccccc12` (single isomer, unassigned) [Example 27, (R)—N-(3-(((R*)-1-(2-aminoquinolin-4-yl)ethyl)carbamoyl)-4-methylphenyl)piperidine-2-carboxamide], the IC50 stood at 0.057 µM.

As to `Cc1ccc(NC(=O)[C@H]2CCCCN2)cc1C(=O)N[C@H](C)c1cc(-n2ccnn2)nc2ccccc12` (single isomer, unassigned) [Example 29, (R)—N-(3-(((R*)-1-(2-(1H-1,2,3-triazol-1-yl)quinolin-4-yl)ethyl)carbamoyl)-4-methylphenyl)piperidine-2-carboxamide], the half-maximal inhibitory concentration (IC50) is 0.1 µM.

Turning to `Cc1ccccc1C(=O)N[C@H](C)c1cc(-c2cnoc2)nc2ccccc12` [Example 58, (R)-N-(1-(2-(isoxazol-4-yl)quinolin-4-yl)ethyl)-2-methylbenzamide], the IC50 turned out to be 100 µM.

Turning to `Cc1cc(COCc2cscn2)ccc1C(=O)NC1(c2cc(-c3cc(C(=O)N(C)CCN(C)C)n[nH]3)nc3ccccc23)CC1` [Example 329, N-(2-(dimethylamino)ethyl)-N-methyl-5-(4-(1-(2-methyl-4-((thiazol-4-ylmethoxy)methyl)benzamido)cyclopropyl)quinolin-2-yl)-1H-pyrazole-3-carboxamide], the 50% inhibitory concentration (IC50) was less than 0.001 µM.

With `Cc1ccccc1C(=O)NC(C)c1cc(N2CCC(S(=O)(=O)N(C)C)CC2)nc2ccccc12` (stereo not shown) [Example 151, N-(1-{2-[4-(dimethylsulfamoyl)piperidin-1-yl]quinolin-4-yl}ethyl)-2-methylbenzamide], the half-maximal inhibitory concentration (IC50) turned out to be 1.46 µM.

As to `Cc1ccc(NC(=O)[C@H]2CCCCN2)cc1C(=O)N[C@H](C)c1cc(N)nc2ccccc12` (single isomer, unassigned) [Example 28, (R)—N-(3-(((R*)-1-(2-aminoquinolin-4-yl)ethyl)carbamoyl)-4-methylphenyl) piperidine-2-carboxamide], the IC50 is 5.45 µM.

On to `Cc1cc(COCc2cscn2)ccc1C(=O)NC1(c2cc(-c3cnn(C(C)(C)C(=O)N(C)C)c3)nc3ccccc23)CC1` [Example 363], for which the concentration for half-maximal inhibition (IC50) is less than 0.001 µM.

As for `CNCc1ccc(C)c(C(=O)NC(C)c2cc(-c3cnn(C)c3)cc3ccccc23)c1` (stereo not shown) [Example 10, 2-methyl-N-(1-(3-(1-methyl-1H-pyrazol-4-yl)naphthalen-1-yl)ethyl)-5-((methylamino)methyl)benzamide], the IC50 is 0.033 µM.

In the case of `Cc1ccc(CN)cc1C(=O)NC(C)c1cc(-n2ncc(C(F)(F)F)n2)nc2ccccc12` (stereo not shown) [Example 32, 5-(aminomethyl)-2-methyl-N-(1-(2-(4-(trifluoromethyl)-2H-1,2,3-triazol-2-yl)quinolin-4-yl)ethyl)benzamide], the IC50 worked out at 0.676 µM.

Turning to `COC[C@@H](OCc1cscn1)c1ccc(C(=O)N[C@H](C)c2cc(-c3cnn(C)c3)nc3ccccc23)c(C)c1` (single isomer, unassigned) [Example 332, 4-((R*)-2-methoxy-1-(thiazol-4-ylmethoxy)ethyl)-2-methyl-N-((R)-1-(2-(1-methyl-1H-pyrazol-4-yl)quinolin-4-yl)ethyl)benzamide], the concentration for half-maximal inhibition (IC50) turned out to be 0.002 µM.

As to `Cc1cc(CNCc2cscn2)ccc1C(=O)N[C@H](C)c1cc(-c2cnn(C)c2)nc2ccccc12` [Example 74, (R)-2-methyl-N-(1-(2-(1-methyl-1H-pyrazol-4-yl)quinolin-4-yl)ethyl)-4-(((thiazol-4-ylmethyl)amino)methyl)benzamide], the IC50 was 0.008 µM.

Take `Cc1cc(COCc2cscn2)ccc1C(=O)NC1(c2cc(-c3cc(C(=O)N(C)C)n[nH]3)cc3ncccc23)CC1` [Example 351, N,N-dimethyl-5-(5-(1-(2-methyl-4-((thiazol-4-ylmethoxy)methyl)benzamido)cyclopropyl)quinolin-7-yl)-1H-pyrazole-3-carboxamide]: the IC50 is less than 0.001 µM.

For the compound `COC(=O)[C@H]1O[C@@H]1C(=O)NNC(=O)CCc1ccccc1C(=O)N[C@H](C)c1cc(-c2cnn(C)c2)nc2ccccc12` [Example 220, methyl(2S,3S)-3-(2-(3-(2-(((R)-1-(2-(1-methyl-1H-pyrazol-4-yl)quinolin-4-yl)ethyl)carbamoyl)phenyl)propanoyl)hydrazine-1-carbonyl)oxirane-2-carboxylate], the IC50 turned out to be 0.002 µM.

As for `COC[C@@H](OCc1cocn1)c1ccc(C(=O)NC2(c3cc(-c4cnn(C)c4)cc4ncccc34)CC2)c(C)c1` (single isomer, unassigned) [Example 355], the half-maximal inhibitory concentration (IC50) is less than 0.001 µM.

With `Cc1cc(COCc2cscn2)ccc1C(=O)NC1(c2cc(-c3cc(C(=O)N(C)C)n[nH]3)nc3ccccc23)CC1` [Example 343, N,N-dimethyl-5-(4-(1-(2-methyl-4-((thiazol-4-ylmethoxy)methyl)benzamido)cyclopropyl)quinolin-2-yl)-1H-pyrazole-3-carboxamide], the IC50 is less than 0.001 µM.

With `Cc1ccc(CN)cc1C(=O)N[C@H](C)c1cc(-n2ccnn2)nc2ccccc12` [Example 23, (R)—N-(1-(2-(1H-1,2,3-triazol-1-yl)quinolin-4-yl)ethyl)-5-(aminomethyl)-2-methylbenzamide], the IC50 was 0.293 µM.

As to `Cc1ccccc1C(=O)NC(C)c1cc(-c2ccc(N)nc2)nc2ccccc12` (stereo not shown) [Example 127, N-{1-[2-(6-aminopyridin-3-yl)quinolin-4-yl]ethyl}-2-methylbenzamide], the 50% inhibitory concentration (IC50) is 1.82 µM.

In the case of `COC(=O)/C=C/C(=O)NNC(=O)CCc1ccccc1C(=O)N[C@H](C)c1cc(-c2cnn(C)c2)nc2ccccc12` [Example 63, methyl(R,E)-4-(2-(3-(2-((1-(2-(1-methyl-1H-pyrazol-4-yl)quinolin-4-yl)ethyl)carbamoyl)phenyl)propanoyl)hydrazineyl)-4-oxobut-2-enoate], the half-inhibitory concentration (IC50) amounted to 0.003 µM.

As to `COC(=O)c1c[nH]c(-c2cc(C(C)NC(=O)c3cc(CN)ccc3C)c3ccccc3c2)c1` (stereo not shown) [Example 70, methyl 5-(4-(1-(5-(aminomethyl)-2-methylbenzamido)ethyl)naphthalen-2-yl)-1H-pyrrole-3-carboxylate], the IC50 stood at 0.011 µM.

As to `Cc1ccc(NC(=O)[C@H]2CCCCN2)cc1C(=O)N[C@H](C)c1cc(-c2ccn[nH]2)cc2ccccc12` (single isomer, unassigned) [Example 69], the concentration for half-maximal inhibition (IC50) was determined as 0.908 µM.

With `COc1cc(-c2cc(C(C)NC(=O)c3ccccc3C)c3ccccc3n2)ccn1` (stereo not shown) [Example 109], the 50% inhibitory concentration (IC50) amounted to 0.28 µM.

Take `Cc1cc(CC(=O)O)ccc1C(=O)N[C@H](C)c1cc(-c2cnn(C)c2)nc2ccccc12` [Example 200, (R)-2-(3-methyl-4-((1-(2-(1-methyl-1H-pyrazol-4-yl)quinolin-4-yl)ethyl)carbamoyl)phenyl)acetic acid]: the 50% inhibitory concentration (IC50) came out at 0.792 µM.

Turning to `Cc1ccccc1C(=O)NC(C)c1cc(-c2cn(C)nc2C)nc2ccccc12` (stereo not shown) [Example 126, N-{1-[2-(1,3-dimethyl-1H-pyrazol-4-yl)quinolin-4-yl]ethyl}-2-methylbenzamide], the IC50 came out at 0.845 µM.

Turning to `COCCn1nc(C)c(-c2cc(C(C)NC(=O)c3ccccc3C)c3ccccc3n2)c1C` (stereo not shown) [Example 121, N-(1-{2-[1-(2-methoxyethyl)-3,5-dimethyl-1H-pyrazol-4-yl]quinolin-4-yl}ethyl)-2-methylbenzamide], the half-maximal inhibitory concentration (IC50) amounted to 1.42 µM.

Take `COC[C@H](OCc1cscn1)c1ccc(C(=O)NC2(c3cc(-c4cnn(C)c4)cc4ncccc34)CC2)c(C)c1` (single isomer, unassigned) [Example 335]: the IC50 was less than 0.001 µM.

Regarding `COC[C@@H](OCc1cocn1)c1ccc(C(=O)NC2(c3cc(-c4cnn(C)c4)nc4ccccc34)CC2)c(C)c1` (single isomer, unassigned) [Example 339], the IC50 is less than 0.001 µM.

As to `Cc1cc(COCc2ccccn2)ccc1C(=O)NC1(c2cc(-c3cnn(CC(=O)N(C)C)c3)nc3ccccc23)CC1` [Example 366, N-(1-(2-(1-(2-(dimethylamino)-2-oxoethyl)-1H-pyrazol-4-yl)quinolin-4-yl)cyclopropyl)-2-methyl-4-((pyridin-2-ylmethoxy)methyl)benzamide], the IC50 was less than 0.001 µM.

Consider `COCCn1cc(-c2cc(C(C)NC(=O)c3ccccc3C)c3ccccc3n2)cn1` (stereo not shown) [Example 112, N-(1-{2-[1-(2-methoxyethyl)-1H-pyrazol-4-yl]quinolin-4-yl}ethyl)-2-methylbenzamide], for which the half-maximal inhibitory concentration (IC50) is 0.294 µM.

As to `Cc1ccccc1C(=O)NC(C)c1cc(C2CC(F)(F)C2)nc2ccccc12` (stereo in doubt) [Example 154, N-{(1R)-1-[2-(3,3-difluorocyclobutyl)quinolin-4-yllethyl}-2-methylbenzamide], the 50% inhibitory concentration (IC50) worked out at 0.988 µM.

For the compound `Cc1ccccc1C(=O)NC(C)c1cc(-c2ccc3nonc3c2)nc2ccccc12` (stereo not shown) [Example 111, N-{1-[2-(2,1,3-benzoxadiazol-5-yl)quinolin-4-yl]ethyl}-2-methylbenzamide], the concentration for half-maximal inhibition (IC50) was 17.3 µM.

Turning to `Cc1cc(CNCc2ncc[nH]2)ccc1C(=O)NC(C)c1cc(-c2cnn(C)c2)cc2ccccc12` (stereo not shown) [Example 6, 4-((((1H-imidazol-2-yl)methyl)amino)methyl)-2-methyl-N-(1-(3-(1-methyl-1H-pyrazol-4-yl)naphthalen-1-yl)ethyl)benzamide], the IC50 amounted to 0.019 µM.

`Cc1ccccc1C(=O)NC(C)c1cc(-c2scc3c2OCCO3)nc2ccccc12` (stereo not shown) [Example 104, N-{1-[2-(2,3-dihydrothieno [3,4-b][1,4]dioxin-5-yl)quinolin-4-yl]ethyl}-2-methylbenzamide]: the IC50 is 10 µM.
